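Exposure lasted 48 hours, with cells grown in 96-well plates and compounds tested at five concentrations. GI50 marks 50% less growth.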 Calls of active or inactive are those of the source. No stated cut-off is given here; in the data, active = GI50 up to about 1.1 µM and inactive = higher.
Legend:
Assay in all cases: NCI-60 cell line screen, 48 h
KM-20L2 = test system: KM-20L2
HOP-18 = test system: HOP-18
M19-MEL = test system: M19-MEL
RXF 631 = test system: RXF 631
XF498 = test system: XF498
DMS-114 = test system: DMS-114
DMS-273 = test system: DMS-273
SNB-78 = test system: SNB-78

Measured: GI50

CCOC(=O)c1cc(-c2ccc(-c3cc(C(=O)OCC)c(C#N)c(N)c3C#N)cc2)c(C#N)c(N)c1C#N
inactive: KM-20L2 > 100 µM | HOP-18 > 100 µM | M19-MEL > 100 µM | RXF 631 > 100 µM | XF498 > 100 µM | DMS-114 > 100 µM | DMS-273 > 100 µM | SNB-78 > 100 µM

OCc1c(-c2cccc3ccccc23)sc(-c2cccc3ccccc23)c1CO
inactive: KM-20L2 11.7 µM | HOP-18 13.5 µM | M19-MEL 15.5 µM | RXF 631 18.2 µM | XF498 6.89 µM | DMS-114 9.1 µM | DMS-273 15.2 µM | SNB-78 16.2 µM

NC(=S)N/N=C/C(O[C@@H](/C=N/NC(N)=S)CO)n1cnc2c(N)ncnc21 (stereo partly specified)
inactive: KM-20L2 > 61.1 µM | HOP-18 > 48.8 µM | M19-MEL 97.1 µM | RXF 631 > 100 µM | XF498 > 100 µM | DMS-114 28.4 µM | DMS-273 > 55.1 µM | SNB-78 > 100 µM

C/C(CC(=O)Nc1ccccc1[N+](=O)[O-])=N\NC(N)=O
inactive: KM-20L2 > 100 µM | M19-MEL > 100 µM | RXF 631 > 100 µM | XF498 > 100 µM | DMS-114 > 100 µM | SNB-78 > 100 µM

CC(C)OC(=O)C1=C(O)c2ccccc2S(=O)(=O)N1
inactive: KM-20L2 > 100 µM | HOP-18 > 100 µM | M19-MEL > 100 µM | RXF 631 > 100 µM | XF498 > 100 µM | DMS-273 > 100 µM | SNB-78 > 100 µM

COc1cc([C@@H]2c3cc4c(cc3[C@@H](NCc3ccccc3)C3COC(=O)[C@@H]32)OCO4)cc(OC)c1O (stereo partly specified)
inactive: KM-20L2 17.9 µM | M19-MEL 14.1 µM | RXF 631 3.44 µM | XF498 13.2 µM | DMS-114 8.41 µM | DMS-273 1.68 µM | SNB-78 34.9 µM

O=C(NC1C(=O)NNC1c1cccc([N+](=O)[O-])c1)c1ccccc1 (stereo unspecified)
inactive: KM-20L2 > 100 µM | HOP-18 > 100 µM | M19-MEL > 100 µM | RXF 631 > 100 µM | XF498 > 100 µM | DMS-114 > 100 µM | SNB-78 > 100 µM
